Source: patent US8722849B2, “Polypeptides” (Novo Nordisk A/S, priority 2011, dated 2014)
Values after ≈ are worked out from the molar mass of the structure shown. Read-outs that look alike come from different tables or passages of the source. Values belong to the molecule of their own block, whether it stands above or below them. Starred links: 1 amine or outer side, 2 acyl side, 3 side chain; linkers in the order of their positions; H or OH if unused. Positions of bridges follow the written chain, without caps; N, C: chain ends. Non-standard residues stand in square brackets, D forms with d. Residues, ends and D or L forms follow the SMILES beside them. *: point of attachment. C20 diacid = O=C(O)CCCCCCCCCCCCCCCCCCC(=O)*; γGlu = O=C(O)[C@H](CCC(=O)[*:2])N[*:1]; AEEA = NCCOCCOCC(=O)O

Tests used:
[1] = target: T1, human amylin receptor (amylin 3(a) receptor: human calcitonin receptor + RAMP-3) (Homo sapiens, UniProt O60896+P30988); test: Assay (II)a functional CRE-luciferase assay, human amylin receptor; type: cell-based
T1 construct: expressed in transfected cells; host or cells: BHK570
T1 sequence (P30988 25-474): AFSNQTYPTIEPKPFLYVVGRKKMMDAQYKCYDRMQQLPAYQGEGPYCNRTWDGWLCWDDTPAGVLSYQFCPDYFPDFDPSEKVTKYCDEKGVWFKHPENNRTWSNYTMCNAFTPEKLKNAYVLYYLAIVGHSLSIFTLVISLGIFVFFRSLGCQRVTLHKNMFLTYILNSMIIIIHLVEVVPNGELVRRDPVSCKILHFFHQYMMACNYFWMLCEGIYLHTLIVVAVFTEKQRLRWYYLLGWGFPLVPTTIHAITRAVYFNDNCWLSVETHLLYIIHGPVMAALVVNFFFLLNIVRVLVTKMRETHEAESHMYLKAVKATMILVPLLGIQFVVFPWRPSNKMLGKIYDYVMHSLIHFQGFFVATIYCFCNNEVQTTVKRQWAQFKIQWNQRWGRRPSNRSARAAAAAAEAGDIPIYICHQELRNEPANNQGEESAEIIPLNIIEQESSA
T1 sequence (O60896 24-148 partner): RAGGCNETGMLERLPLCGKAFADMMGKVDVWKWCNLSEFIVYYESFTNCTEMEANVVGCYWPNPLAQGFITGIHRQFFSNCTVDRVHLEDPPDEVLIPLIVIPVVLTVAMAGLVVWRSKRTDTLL

[2] = target: T2, human calcitonin receptor (Homo sapiens, UniProt P30988); test: Assay (II)a functional CRE-luciferase assay, human calcitonin receptor; type: cell-based
T2 construct: expressed in transfected cells; host or cells: BHK570
T2 sequence (P30988 25-474): T1 sequence (P30988 25-474)

[3] = target: T3, rat amylin 3(a) receptor (rat calcitonin(a) receptor + rat RAMP3) (Rattus norvegicus, UniProt P32214+Q9JJ73); test: Assay (II)b functional cAMP FlashPlate assay, rat amylin receptor; type: cell-based; conditions: Table 11
T3 construct: expressed in transfected cells; host or cells: BHK tk'ts 13
T3 sequence (P32214 25-479 isoform P32214-2 limits assumed): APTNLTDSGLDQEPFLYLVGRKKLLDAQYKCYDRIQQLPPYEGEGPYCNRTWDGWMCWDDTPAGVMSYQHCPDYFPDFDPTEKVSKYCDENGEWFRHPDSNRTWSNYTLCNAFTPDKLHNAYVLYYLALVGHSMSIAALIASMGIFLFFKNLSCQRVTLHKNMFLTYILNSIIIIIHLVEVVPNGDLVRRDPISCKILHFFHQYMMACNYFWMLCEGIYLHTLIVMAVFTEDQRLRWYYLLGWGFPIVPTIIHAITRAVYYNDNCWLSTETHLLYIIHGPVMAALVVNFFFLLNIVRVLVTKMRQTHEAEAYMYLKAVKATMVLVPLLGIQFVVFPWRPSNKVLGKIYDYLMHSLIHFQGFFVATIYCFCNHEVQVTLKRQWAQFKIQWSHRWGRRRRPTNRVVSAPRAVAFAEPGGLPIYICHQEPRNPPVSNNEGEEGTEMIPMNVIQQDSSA
T3 sequence (Q9JJ73 23-147 partner): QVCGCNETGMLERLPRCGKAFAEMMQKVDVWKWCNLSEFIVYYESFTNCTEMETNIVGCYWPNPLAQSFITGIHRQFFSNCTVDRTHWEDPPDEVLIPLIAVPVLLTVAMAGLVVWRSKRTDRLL
Method in brief: (§1)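 BHK tk'ts 13 cells transiently transfected with rat calcitonin(a) receptor, alone or with rat RAMP3 (amylin 3(a)), were stimulated 24 hours later with sample for 30 min in buffer containing IBMX. cAMP measured by competitive radioactive FlashPlate assay, scintillation read after 3 h detection incubation.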

[4] = target: T4, rat calcitonin (a) receptor (Rattus norvegicus, UniProt P32214); test: Assay (II)b functional cAMP FlashPlate assay, rat calcitonin receptor; type: cell-based; conditions: Table 11; read-out: CTa receptor rat EC50
T4 construct: expressed in transfected cells; host or cells: BHK tk'ts 13
T4 sequence (P32214 25-479 isoform P32214-2 limits assumed): T3 sequence (P32214 25-479 isoform P32214-2 limits assumed)
Method in brief: as §1

[5] = Assay (IV) determination of solubility; type: physicochemical
Method in brief: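 Polypeptide in water (~500 nmol/ml) mixed 1:1 with 100 mM glycylglycine (pH 3.0–5.0) or bistrispropane (pH 6.0–8.0) buffers. Held 18 hours at room temperature, then centrifuged. Polypeptide remaining in solution quantified by HPLC.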

[6] = Table 2, BHK amylin 3(a)-receptor/CRE-luc cells
[7] = Table 7, human calcitonin (CTa) receptor

EC50 [1, 6]: 0.149 nM
EC50 ([1]; Table 3, BHK amylin 3(a)-receptor/CRE-luc cells): 0.149 nM
EC50 ([1]; Table 4): 0.149 nM
EC50 ([1]; Table 5): 0.149 nM
EC50 ([1]; Table 6, human amylin receptor): 0.149 nM
EC50 ([1]; Table 7, human amylin receptor): 0.149 nM
EC50 ([1]; Table 8): 0.149 nM
EC50 ([1]; Table 9): 0.149 nM
EC50 ([1]; Table 11): 0.149 nM
EC50 [2, 7]: 1.11 nM
EC50 ([2]; Table 11, read-out: CTa receptor human EC50): 1.11 nM
EC50 [3]: 0.233 nM
EC50 [4]: 4.48 nM
solubility ([5]; pH 3, pH 3.0, read-out: Solubility pH 3.0): > 200 µM
solubility ([5]; pH 4, pH 4.0, 18 hours at room temperature, Table 2, read-out: Solubility pH 4.0): > 200 µM
solubility ([5]; pH 4, pH 4.0, read-out: Solubility pH 4.0): > 200 µM
solubility ([5]; pH 5, pH 5.0, read-out: Solubility pH 5.0): > 200 µM
solubility ([5]; pH 6, pH 6.0, read-out: Solubility pH 6.0): > 200 µM
solubility ([5]; pH 6.5, pH 6.5, read-out: Solubility pH 6.5): > 200 µM
solubility ([5]; pH 7, pH 7.0, 18 hours at room temperature, Table 3, read-out: Solubility pH 7.0): > 200 µM
solubility ([5]; pH 7, pH 7.0, Table 8, read-out: Solubility pH 7.0): > 200 µM
solubility ([5]; pH 7, pH 7.0, Table 9, read-out: Solubility pH 7.0): > 200 µM
solubility ([5]; pH 7, pH 7.0, read-out: Solubility pH 7.0): > 200 µM
solubility ([5]; pH 7.5, pH 7.5, Table 9, read-out: Solubility pH 7.5): > 200 µM
solubility ([5]; pH 7.5, pH 7.5, read-out: Solubility pH 7.5): > 200 µM
solubility ([5]; pH 8, pH 8.0, read-out: Solubility pH 8.0): > 200 µM
Structure (SMILES): CC[C@H](C)[C@H](NC(=O)[C@@H]1CCCN1C(=O)CNC(=O)[C@H](Cc1ccccc1)NC(=O)[C@H](CC(N)=O)NC(=O)[C@H](C)NC(=O)[C@H](CO)NC(=O)[C@H](CO)NC(=O)[C@H](CCCNC(=N)N)NC(=O)[C@H](Cc1cnc[nH]1)NC(=O)[C@H](CC(C)C)NC(=O)[C@H](Cc1ccccc1)NC(=O)[C@H](CCC(=O)O)NC(=O)[C@H](C)NC(=O)[C@H](CC(C)C)NC(=O)[C@H](CCCNC(=N)N)NC(=O)[C@H](CCC(N)=O)NC(=O)[C@@H](NC(=O)[C@H](C)NC(=O)[C@@H]1CSSC[C@H](NC(=O)[C@H](CCCCN)NC(=O)[C@@H](CCCNC(=N)N)NC(=O)[C@@H](CCCNC(=N)N)NC(=O)COCCOCCNC(=O)COCCOCCNC(=O)CC[C@H](NC(=O)CCCCCCCCCCCCCCCCCCC(=O)O)C(=O)O)C(=O)N[C@@H](CC(N)=O)C(=O)N[C@@H]([C@@H](C)O)C(=O)N[C@@H](C)C(=O)N[C@@H]([C@@H](C)O)C(=O)N1)[C@@H](C)O)C(=O)N[C@@H](CC(C)C)C(=O)N1CCC[C@H]1C(=O)N1CCC[C@H]1C(=O)N[C@H](C(=O)N[C@@H](CC(N)=O)C(=O)N[C@H](C(=O)NCC(=O)N[C@@H](CO)C(=O)N[C@@H](CO)C(=O)N[C@H](C(=O)N[C@@H](Cc1ccc(O)cc1)C(N)=O)[C@@H](C)O)C(C)C)[C@@H](C)O [Example 38, N-alpha-[2-(2-{2-[2-(2-{2-[(S)-4-Carboxy-4-(19-carboxyheptadecanoylamino)butyrylamino]ethoxy}ethoxy)acetylamino]ethoxy}ethoxy)acetyl]-D-Arg-D-Arg-[Glu14,His17,Arg18,Ala21,Ser35]-pramlintide] ({C20 diacid-γGlu-AEEA-AEEA}-[dR][dR]KCNTATCATQRLAEFLHRSSANFGPILPPTNVGSSTY-NH2; disulfide 4-9)

EC50 [1, 6]: 0.111 nM
EC50 [2, 7]: 0.166 nM
EC50 [3]: 0.147 nM
EC50 [4]: 0.221 nM
solubility at 18 h ([5]; bistrispropane buffer, pH 6, pH 6.0, read-out: Solubility pH 6.0): 160 µM (≈ 736 µg/mL)
solubility at 18 h ([5]; bistrispropane buffer, pH 6.5, pH 6.5, read-out: Solubility pH 6.5): 66 µM (≈ 304 µg/mL)
solubility at 18 h ([5]; bistrispropane buffer, pH 7, pH 7.0, read-out: Solubility pH 7.0): 88 µM (≈ 405 µg/mL)
solubility at 18 h ([5]; bistrispropane buffer, pH 7.5, pH 7.5, read-out: Solubility pH 7.5): > 200 µM
solubility at 18 h ([5]; bistrispropane buffer, pH 8, pH 8.0, read-out: Solubility pH 8.0): > 200 µM
solubility at 18 h ([5]; glycylglycine buffer, pH 3, pH 3.0, read-out: Solubility pH 3.0): > 200 µM
solubility at 18 h ([5]; glycylglycine buffer, pH 4, pH 4.0, 18 hours at room temperature, Table 2, read-out: Solubility pH 4.0): > 200 µM
solubility at 18 h ([5]; glycylglycine buffer, pH 4, pH 4.0, read-out: Solubility pH 4.0): > 200 µM
solubility at 18 h ([5]; glycylglycine buffer, pH 5, pH 5.0, read-out: Solubility pH 5.0): > 200 µM
Structure (SMILES): CC[C@H](C)[C@H](NC(=O)[C@@H]1CCCN1C(=O)CNC(=O)[C@H](Cc1ccccc1)NC(=O)[C@H](CC(N)=O)NC(=O)[C@H](CC(N)=O)NC(=O)[C@H](CO)NC(=O)[C@H](CO)NC(=O)[C@H](Cc1cnc[nH]1)NC(=O)[C@H](Cc1cnc[nH]1)NC(=O)[C@H](CC(C)C)NC(=O)[C@H](Cc1ccccc1)NC(=O)[C@H](CCC(=O)O)NC(=O)[C@H](C)NC(=O)[C@H](CC(C)C)NC(=O)[C@H](CCCNC(=N)N)NC(=O)[C@H](CCC(N)=O)NC(=O)[C@@H](NC(=O)[C@H](C)NC(=O)[C@@H]1CSSC[C@H](NC(=O)[C@H](Cc2cnc[nH]2)NC(=O)[C@H](Cc2cnc[nH]2)NC(=O)CC[C@H](NC(=O)CCCCCCCCCCCCCCCCCCC(=O)O)C(=O)O)C(=O)N[C@@H](CC(N)=O)C(=O)N[C@@H]([C@@H](C)O)C(=O)N[C@@H](C)C(=O)N[C@@H]([C@@H](C)O)C(=O)N1)[C@@H](C)O)C(=O)N[C@@H](CC(C)C)C(=O)N1CCC[C@H]1C(=O)N1CCC[C@H]1C(=O)N[C@H](C(=O)N[C@@H](CC(N)=O)C(=O)N[C@H](C(=O)NCC(=O)N[C@@H](CO)C(=O)N[C@@H](CC(N)=O)C(=O)N[C@H](C(=O)N[C@@H](Cc1ccc(O)cc1)C(N)=O)[C@@H](C)O)C(C)C)[C@@H](C)O [Example 17, N-alpha-[(S)-4-Carboxy-4-(19-carboxynonadecanoylamino)butyryl]-His-[His1,Glu14,His17]-pramlintide] ({C20 diacid-γGlu}-HHCNTATCATQRLAEFLHHSSNNFGPILPPTNVGSNTY-NH2; disulfide 3-8)
